Experiments:
Format in all cases: cell-based
[1] = system: Bacillus licheniformis
Description: (§1) FIG. 1: Toxicity impact of 4-APEA across a range of organisms tested in an Enzyscreen system. Various organisms are grown in media that is supplemented with the molecule of interest, and the growth of the organism is monitored over time. Analysis of the growth-time-course data allows determination of toxicity properties of the molecule of interest, such as the Minimal Inhibitory Concentration (MIC), the concentration at which growth is slowed to half (Ki), and the slope at which increased toxicity effects are observed (alpha). For FIG. 1, product toxicity was measured as a function of reduced substrate uptake with increasing product concentration.
(§2) The term “Ki,” as used herein, refers to the concentration of a chemical (e.g., 4-APEA) at which the maximal growth rate of cells in culture is slowed by half. Cultures of the cells are grown in media supplemented with varying concentrations of a chemical, and the cell growth is monitored over time. Exponential growth curve data at each chemical concentration are used to determine a specific growth rate p using the following equation:
(§3) where: X=cell concentration X0=cell concentration at time (t)=0 μ=specific growth rate. The maximal growth rate for each chemical concentration is determined (μobs) and the Ki is the chemical concentration at which the maximal growth rate has been slowed to half of the maximal growth rate in the absence of the chemical (μmax). Ki (denoted K1 below) can be determined from the equation:
(§4) where: CI=concentration of inhibitor KI=inhibition constant—inhibitor concentration where growth rate is half of maximum α=inhibition parameter to fit data μmax=the maximum growth rate of a culture in the absence of a chemical μobs=the maximum growth rate of a culture at a given concentration of a chemical
(§5) The term “alpha” (“α”), as used herein, refers to the slope at which toxicity effects are observed. Cultures of the cells are grown in media supplemented with increasing concentrations of a chemical, and the cell growth is monitored over time. Alpha can be determined from the equation: […]
(§6) One obstacle to efficient production of 4-aminophenylethylamine (4-APEA) by fermentation is that 4-APEA is toxic to many host microbes used conventionally for fermentation. FIG. 1 depicts the concentration of 4-APEA at which an organism's growth is slowed by half (Ki) and the slope (alpha) at which toxicity effects are observed over increasing 4-APEA concentrations. A larger Ki and smaller alpha indicate higher tolerance and less susceptibility to inhibition, respectively. […] K. phaffi is expected to perform similarly to K. pastoris as a production host.

[2] = system: Komagataella phaffi
Description: as §1, §2, §3, §4, §5, §6

[3] = system: Saccharomyces cerevisiae
Description: as §1, §2, §3, §4, §5, §6

[4] = system: Yarrowia lipolytica
Description: as §1, §2, §3, §4, §5, §6

Structure (SMILES): NCCc1ccc(N)cc1 [Strain 4-APEA, 4-aminophenylethylamine]
- toxicity of 4-APEA (growth inhibition) [1]: better results
- toxicity of 4-APEA (growth inhibition) [2]: better results
- toxicity of 4-APEA (growth inhibition) [3]: substantial toxicity
- toxicity of 4-APEA (growth inhibition) [4]: better results

— US20230392173A1, “ENGINEERED BIOSYNTHETIC PATHWAY FOR PRODUCTION OF 4-AMINOPHENYLETHYLAMINE BY FERMENTATION” (Zymergen Inc., priority 2020, published 2023)
